Read-outs that look alike come from different tables or passages of the source.
Experiments:
[1] = test system: IL-17A release in human PBMC; assay: IL-17A release, human PBMC, anti-CD3 + anti-CD28; format: cell-based
Source text: Inhibition of RORγ by PCCR-1 was also estimated in a functional assay by measuring the inhibition of Th17 dependent cytokine IL-17A release in human peripheral blood mononuclear cells (PBMCs), mouse splenocytes and canine PBMC stimulated with their respective anti-CD3 and anti-CD28 antibodies.
Human whole blood from healthy subjects were procured from Clinical Research Unit, Sanpada. Clinical Research Center Glenmark (Plot No. D, 508, Turbhe, TTC Industrial Area, MIDC, Sanpada, Navi Mumbai, Maharashtra 400705, India). PBMCs were isolated using heparinized blood with Ficoll Histopaque. Briefly, the cells were seeded in 96-well plate pre-coated with human anti-CD3 mAb (10 µg/mL), post 30 min of compound treatment cells were stimulated with human anti-CD28 mAb (2 µg/mL). After 72 h of culture, the supernatant was collected for Th1/Th2 cytokines; IFN-γ, IL-2, IL-4 and IL-10 and measured by ELISA. For Th17 polarization assay, the following cytokine cocktail was used: IL-1β (10 ng/ml), IL-23(10 ng/ml), IL-6 (50 ng/ml), TGF-β1 (3 ng/ml), IL-2 (20U/ml) and supernatants were used for measuring IL-17 and IL-22 by ELISA.

[2] = Toxicokinetics (blood), 14-day inhalation study in Sprague Dawley rats; format: in vivo, rat; conditions: for half-life / AUC(0-t) / Cmax / Tmax: inhaled or intranasal; for half-life / AUC(0-t) / Cmax: inhalation; for AUC(0-t): read-out: AUC0-tlast, mean (SE); for Cmax: read-out: Cmax, mean (SE)
Procedure: Rats were exposed to PCCR-1 aerosols at 3.4, 10.8 and 32.1 mg/kg/day (delivered dose) for 60 min daily for 14 days using a snout only exposure technique via a modular stainless steel flow past inhalation chamber at indicated doses as mentioned in Table 3. No treatment-related findings noted, including myeloid:erythroid (M:E) ratios in any dose levels except minimal changes in the reticulocytes and adrenal glands.
The TK assessment was done by measuring the concentrations of PCCR-1 in blood.
The toxicology study was done in SD (Sprague Dawley) rats that were exposed to PCCR-1 aerosol for 60 min daily at 3.4, 10.8 and 32.1 mg/kg/day (delivered dose) for 14 days using a snout only exposure technique via a modular stainless steel flow past inhalation chamber. A 60% w/w blend of PCCR-1 in Lactose LH201 was prepared by adding the appropriate amount of PCCR-1 to the appropriate amount of lactose. The estimated delivered doses were derived based on analytical aerosol concentration, and respiratory minute volume calculated based on body weight, exposure duration, and animal body weight (Supplementary section B).

[3] = both sexes, Sprague Dawley, rat, blood, 10.8 mg/kg/day, SD rat blood, 10.8 mg/kg/day, Day 1, Mean
[4] = both sexes, Sprague-Dawley, rat, blood, 3.4 mg/kg/day, SD rat blood, 3.4 mg/kg/day, Day 1, Mean
[5] = both sexes, Sprague-Dawley, rat, blood, 3.4 mg/kg/day, SD rat blood, 3.4 mg/kg/day, Day 14, Mean
[6] = both sexes, Sprague-Dawley, rat, in vivo, 32.1 mg/kg/day, SD rat blood, 32.1 mg/kg/day, Day 1, Mean
[7] = both sexes, Sprague-Dawley, rat, in vivo, 32.1 mg/kg/day, SD rat blood, 32.1 mg/kg/day, Day 14, Mean
[8] = both sexes, Sprague-Dawley, rat, whole blood, 10.8 mg/kg/day, SD rat blood, 10.8 mg/kg/day, Day 14, Mean
[9] = female, Sprague-Dawley, rat, blood, 3.4 mg/kg/day, SD rat blood, 3.4 mg/kg/day, Day 1, Female
[10] = female, Sprague-Dawley, rat, blood, 3.4 mg/kg/day, SD rat blood, 3.4 mg/kg/day, Day 14, Female
[11] = female, Sprague-Dawley, rat, blood, 10.8 mg/kg/day, SD rat blood, 10.8 mg/kg/day, Day 1, Female
[12] = female, Sprague-Dawley, rat, in vivo, 32.1 mg/kg/day, SD rat blood, 32.1 mg/kg/day, Day 1, Female
[13] = female, Sprague-Dawley, rat, in vivo, 32.1 mg/kg/day, SD rat blood, 32.1 mg/kg/day, Day 14, Female
[14] = female, Sprague-Dawley, rat, whole blood, 10.8 mg/kg/day, SD rat blood, 10.8 mg/kg/day, Day 14, Female

## CCn1c(C(C)(C)Oc2ccc(F)cc2F)nc2cc(NC(=O)Cc3ccc(S(=O)(=O)CC)cc3)ccc21 [PCCR-1]
[1]; TCR activating conditions, comparative Th1/Th2/Th17 study (Fig. 3A), read-out: hIL-17 (IL-17A) IC50
  IC50: 94.3 nM
[1]; anti-CD3 + anti-CD28, n = 24 (Fig. 1D), read-out: Cellular activity: Human IC50, IL-17A release
  IC50: 117 nM
[2]; Sprague-Dawley, in vivo, SD rat blood, 32.1 mg/kg/day, Day 1, Female
  half-life: 414 min
[2]; Sprague-Dawley, in vivo, SD rat blood, 32.1 mg/kg/day, Day 1, Male
  half-life: 408 min
[2]; [3]
  AUC(0-t): 5090 ng·h/mL
  Cmax: 457 ng/mL
[2]; both sexes, Sprague Dawley, rat, blood, 10.8 mg/kg/day, from start of inhalation dosing, SD rat blood, 10.8 mg/kg/day, Day 1, Mean
  Tmax: 3 h
[2]; both sexes, Sprague-Dawley, in vivo, SD rat blood, 32.1 mg/kg/day, Day 1, Mean
  half-life: 408 min
[2]; [4]
  AUC(0-t): 982 ng·h/mL
  Cmax: 189 ng/mL
[2]; [5]
  half-life: 384 min
  AUC(0-t): 2560 ng·h/mL
  Cmax: 215 ng/mL
[2]; both sexes, Sprague-Dawley, rat, blood, 3.4 mg/kg/day, from start of inhalation dosing, SD rat blood, 3.4 mg/kg/day, Day 1, Mean
  Tmax: 3 h
[2]; both sexes, Sprague-Dawley, rat, blood, 3.4 mg/kg/day, from start of inhalation dosing, SD rat blood, 3.4 mg/kg/day, Day 14, Mean
  Tmax: 4 h
[2]; [6]
  AUC(0-t): 7440 ng·h/mL
  Cmax: 735 ng/mL
[2]; [7]
  AUC(0-t): 12200 ng·h/mL
  Cmax: 1020 ng/mL
[2]; both sexes, Sprague-Dawley, rat, whole blood, 10.8 mg/kg/day, SD rat blood, 10.8 mg/kg/day, Day 1, Mean
  half-life: 354 min
[2]; [8]
  half-life: 306 min
  AUC(0-t): 6750 ng·h/mL
  Cmax: 519 ng/mL
[2]; both sexes, Sprague-Dawley, rat, whole blood, 10.8 mg/kg/day, from start of inhalation dosing, SD rat blood, 10.8 mg/kg/day, Day 14, Mean
  Tmax: 4 h
[2]; both, Sprague-Dawley, rat, in vivo, 3.4 mg/kg/day
  tlast: 25.0 h
[2]; both, Sprague-Dawley, rat, in vivo, 10.8 mg/kg/day
  tlast: 25.0 h
[2]; [9]
  AUC(0-t): 1000 ng·h/mL
  Cmax: 202 ng/mL
[2]; [10]
  AUC(0-t): 2610 ng·h/mL
  Cmax: 241 ng/mL
[2]; female, Sprague-Dawley, rat, blood, 3.4 mg/kg/day, from start of inhalation dosing, SD rat blood, 3.4 mg/kg/day, Day 1, Female
  Tmax: 3 h
[2]; female, Sprague-Dawley, rat, blood, 3.4 mg/kg/day, from start of inhalation dosing, SD rat blood, 3.4 mg/kg/day, Day 14, Female
  Tmax: 5 h
[2]; [11]
  half-life: 348 min
  AUC(0-t): 7270 ng·h/mL
  Cmax: 544 ng/mL
[2]; female, Sprague-Dawley, rat, blood, 10.8 mg/kg/day, from start of inhalation dosing, SD rat blood, 10.8 mg/kg/day, Day 1, Female
  Tmax: 3 h
[2]; female, Sprague-Dawley, rat, in vivo, 3.4 mg/kg/day
  tlast: 25.0 h
[2]; female, Sprague-Dawley, rat, in vivo, 10.8 mg/kg/day
  tlast: 25.0 h
[2]; [12]
  AUC(0-t): 9470 ng·h/mL
  Cmax: 936 ng/mL
[2]; [13]
  AUC(0-t): 16200 ng·h/mL
  Cmax: 1150 ng/mL
[2]; [14]
  half-life: 306 min
  AUC(0-t): 8050 ng·h/mL
  Cmax: 679 ng/mL
[2]; female, Sprague-Dawley, rat, whole blood, 10.8 mg/kg/day, from start of inhalation dosing, SD rat blood, 10.8 mg/kg/day, Day 14, Female
  Tmax: 3 h
[2]; from start of inhalation dosing, SD rat blood, 3.4 mg/kg/day, Day 1, Female
  tlast: 9.0 h
[2]; from start of inhalation dosing, SD rat blood, 3.4 mg/kg/day, Day 1, Male
  tlast: 9.0 h

— paper PMC9130233, “An inhibitor of RORγ for chronic pulmonary obstructive disease treatment” (Scientific Reports, 2022)
